Results on eleven compounds are retold here after PubChem BioAssay (NCI).

Where “and” joins values, the source holds several entries; their conditions need not be identical. Equal values may be shown once.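 These data come from cells grown in 96-well plates and exposed to compound for 48 hours at five concentrations. Abbreviation: GI50, concentration required for 50% inhibition of growth. TGI is the concentration that stops growth completely.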

The first experiment concerns UO-31 renal. The experiment can be described thus: growth of human tumour cells (NCI), 48 h.
Turning to `Cn1cc(C2=C(c3cn(C)c4ccc(N)cc34)C(=O)NC2=O)c2ccccc21`, the GI50 was 3.6 µM and the TGI was greater than 25 µM.

For the compound `S=C(N/N=C/c1cc(Cl)cc(Cl)c1)NC12CC3CC(CC(C3)C1)C2`, the GI50 was 4.86 µM and the TGI is greater than 100 µM.

Consider `CC(CO)[C@H]1OC(=O)C=C2[C@@]13O[C@@H]3[C@H]1OC(=O)[C@@]3(C)[C@H]4O[C@H]4C[C@@]2(C)[C@@H]13` (some centres undefined), for which the TGI stood at 6.41 µM.

Compound `COc1cc(-c2oc3ccccc3c(=O)c2O)cc(OC)c1OC` gave a TGI greater than 100 µM.

In the case of `C/C(=N\O)c1ccc(Nc2cc(-n3nnc4ccccc43)nc3ccccc23)cc1`, the GI50 was 6.79 µM and the TGI was found to be 26.6 µM.

For the compound `C[C@]12CC[C@@H]3c4ccc(O)c([N+](=O)[O-])c4CC[C@H]3[C@@H]1CC[C@@H]2NS(=O)(=O)c1ccc(C(F)(F)F)cc1`, the GI50 was 1.5 µM and the TGI came to 3.19 µM.

As to `Clc1ccc(COC(Cn2ccnc2)c2ccc(Cl)cc2Cl)cc1` (centres undefined), the GI50 is 1.44 µM; the TGI was 5.91 µM and 17.4 µM and 14.6 µM.

In the case of `Nc1c(C(=O)Nc2ccc([As](=O)(O)O)cc2)cnc2nnnn12`, the TGI was greater than 100 µM.

As to `CC(C)n1c(/C=C/[C@@H](O)C[C@@H](O)CC(=O)O)c(-c2ccc(F)cc2)c2ccccc21`, the GI50 is 4.91 µM and 3.26 µM; the TGI was greater than 100 µM.

The compound `CCOc1ccc(NCC2CC/C(=C\C=C\c3ccccc3)C2=O)cc1` (centres undefined) showed a TGI of 66.2 µM.

In turn, `N#Cc1ccc(-c2nc(C#N)c(N)o2)cc1` yielded a TGI greater than 10 µM.

The next experiment deals with SN12C renal. Put plainly: growth of human tumour cells (NCI), 48 h.
Turning to `Cn1cc(C2=C(c3cn(C)c4ccc(N)cc34)C(=O)NC2=O)c2ccccc21`, the GI50 was 13.4 µM and the TGI is greater than 25 µM.

The compound `S=C(N/N=C/c1cc(Cl)cc(Cl)c1)NC12CC3CC(CC(C3)C1)C2` displayed a TGI greater than 100 µM.

Compound `CC(CO)[C@H]1OC(=O)C=C2[C@@]13O[C@@H]3[C@H]1OC(=O)[C@@]3(C)[C@H]4O[C@H]4C[C@@]2(C)[C@@H]13` (some centres undefined) gave a TGI of 13.6 µM.

In the case of `COc1cc(-c2oc3ccccc3c(=O)c2O)cc(OC)c1OC`, the TGI was greater than 100 µM.

As for `C/C(=N\O)c1ccc(Nc2cc(-n3nnc4ccccc43)nc3ccccc23)cc1`, the GI50 was 4.67 µM and the TGI stood at 14.2 µM.

As for `C[C@]12CC[C@@H]3c4ccc(O)c([N+](=O)[O-])c4CC[C@H]3[C@@H]1CC[C@@H]2NS(=O)(=O)c1ccc(C(F)(F)F)cc1`, the GI50 is 1.6 µM and the TGI was 3.1 µM.

In the case of `Clc1ccc(COC(Cn2ccnc2)c2ccc(Cl)cc2Cl)cc1` (centres undefined), the GI50 was 2.5 µM; the TGI was 12.7 µM and 25.3 µM.

`Nc1c(C(=O)Nc2ccc([As](=O)(O)O)cc2)cnc2nnnn12` registered a TGI greater than 100 µM.

For `CC(C)n1c(/C=C/[C@@H](O)C[C@@H](O)CC(=O)O)c(-c2ccc(F)cc2)c2ccccc21`, the GI50 is 0.7 µM and 0.598 µM; the TGI was greater than 100 µM.

As for `CCOc1ccc(NCC2CC/C(=C\C=C\c3ccccc3)C2=O)cc1` (centres undefined), the TGI was determined as 35.4 µM.

Compound `N#Cc1ccc(-c2nc(C#N)c(N)o2)cc1` registered a TGI greater than 10 µM.

A further experiment has as its system SK-MEL-28 melanoma. Put plainly: growth of human tumour cells (NCI), 48 h.
With `Cn1cc(C2=C(c3cn(C)c4ccc(N)cc34)C(=O)NC2=O)c2ccccc21`, the GI50 was 17.2 µM and the TGI is greater than 25 µM.

`S=C(N/N=C/c1cc(Cl)cc(Cl)c1)NC12CC3CC(CC(C3)C1)C2`: the GI50 was 14.4 µM and the TGI was greater than 100 µM.

The compound `CC(CO)[C@H]1OC(=O)C=C2[C@@]13O[C@@H]3[C@H]1OC(=O)[C@@]3(C)[C@H]4O[C@H]4C[C@@]2(C)[C@@H]13` (some centres undefined) gave a TGI greater than 100 µM.

As for `COc1cc(-c2oc3ccccc3c(=O)c2O)cc(OC)c1OC`, the TGI is greater than 100 µM.

For `C/C(=N\O)c1ccc(Nc2cc(-n3nnc4ccccc43)nc3ccccc23)cc1`, the GI50 is 16.9 µM and the TGI was greater than 69 µM.

On to `C[C@]12CC[C@@H]3c4ccc(O)c([N+](=O)[O-])c4CC[C@H]3[C@@H]1CC[C@@H]2NS(=O)(=O)c1ccc(C(F)(F)F)cc1`, for which the GI50 is 1.99 µM and the TGI was 3.66 µM.

Take `Clc1ccc(COC(Cn2ccnc2)c2ccc(Cl)cc2Cl)cc1` (centres undefined): the GI50 is 4.66 µM; the TGI was 16.6 µM and 34.6 µM and 30 µM.

With `Nc1c(C(=O)Nc2ccc([As](=O)(O)O)cc2)cnc2nnnn12`, the TGI was greater than 100 µM.

Consider `CC(C)n1c(/C=C/[C@@H](O)C[C@@H](O)CC(=O)O)c(-c2ccc(F)cc2)c2ccccc21`, for which the GI50 is 12.2 µM and 15.4 µM; the TGI is 53.9 µM and > 86.3 µM.

`CCOc1ccc(NCC2CC/C(=C\C=C\c3ccccc3)C2=O)cc1` (centres undefined) displayed a TGI of 35.5 µM.

For `N#Cc1ccc(-c2nc(C#N)c(N)o2)cc1`, the TGI is greater than 10 µM.

The test system of another experiment is NCI-H522 lung. The experiment can be described thus: growth of human tumour cells (NCI), 48 h.
Regarding `Cn1cc(C2=C(c3cn(C)c4ccc(N)cc34)C(=O)NC2=O)c2ccccc21`, the GI50 was 6.78 µM and the TGI is greater than 25 µM.

For the compound `S=C(N/N=C/c1cc(Cl)cc(Cl)c1)NC12CC3CC(CC(C3)C1)C2`, the GI50 is greater than 63.4 µM and the TGI is greater than 100 µM.

`CC(CO)[C@H]1OC(=O)C=C2[C@@]13O[C@@H]3[C@H]1OC(=O)[C@@]3(C)[C@H]4O[C@H]4C[C@@]2(C)[C@@H]13` (some centres undefined) had a TGI of 5.38 µM.

For the compound `COc1cc(-c2oc3ccccc3c(=O)c2O)cc(OC)c1OC`, the TGI is greater than 80.3 µM.

For `C/C(=N\O)c1ccc(Nc2cc(-n3nnc4ccccc43)nc3ccccc23)cc1`, the GI50 was 6.39 µM and the TGI worked out at 22.8 µM.

As to `C[C@]12CC[C@@H]3c4ccc(O)c([N+](=O)[O-])c4CC[C@H]3[C@@H]1CC[C@@H]2NS(=O)(=O)c1ccc(C(F)(F)F)cc1`, the GI50 was 1.61 µM and the TGI was determined as 3.48 µM.

As for `Clc1ccc(COC(Cn2ccnc2)c2ccc(Cl)cc2Cl)cc1` (centres undefined), the GI50 was 0.282 µM; the TGI is 2.43 µM and 18.5 µM and 22.8 µM.

Take `Nc1c(C(=O)Nc2ccc([As](=O)(O)O)cc2)cnc2nnnn12`: the TGI is greater than 100 µM.

With `CC(C)n1c(/C=C/[C@@H](O)C[C@@H](O)CC(=O)O)c(-c2ccc(F)cc2)c2ccccc21`, the GI50 is 0.995 µM and 0.999 µM; the TGI is greater than 100 µM.

With `CCOc1ccc(NCC2CC/C(=C\C=C\c3ccccc3)C2=O)cc1` (centres undefined), the TGI came to 32.3 µM.

`N#Cc1ccc(-c2nc(C#N)c(N)o2)cc1` showed a TGI greater than 10 µM.

The test system of a further experiment is UACC-257 melanoma. Put plainly: growth of human tumour cells (NCI), 48 h.
Take `Cn1cc(C2=C(c3cn(C)c4ccc(N)cc34)C(=O)NC2=O)c2ccccc21`: the GI50 was greater than 25 µM and the TGI was greater than 25 µM.

`S=C(N/N=C/c1cc(Cl)cc(Cl)c1)NC12CC3CC(CC(C3)C1)C2`: the GI50 is greater than 22.7 µM and the TGI is greater than 100 µM.

For the compound `CC(CO)[C@H]1OC(=O)C=C2[C@@]13O[C@@H]3[C@H]1OC(=O)[C@@]3(C)[C@H]4O[C@H]4C[C@@]2(C)[C@@H]13` (some centres undefined), the TGI is greater than 26.1 µM.

In turn, `COc1cc(-c2oc3ccccc3c(=O)c2O)cc(OC)c1OC` returned a TGI greater than 100 µM.

For the compound `C/C(=N\O)c1ccc(Nc2cc(-n3nnc4ccccc43)nc3ccccc23)cc1`, the GI50 is 17.5 µM and the TGI is greater than 53.7 µM.

For the compound `C[C@]12CC[C@@H]3c4ccc(O)c([N+](=O)[O-])c4CC[C@H]3[C@@H]1CC[C@@H]2NS(=O)(=O)c1ccc(C(F)(F)F)cc1`, the GI50 was 1.87 µM and the TGI is 4.74 µM.

Regarding `Clc1ccc(COC(Cn2ccnc2)c2ccc(Cl)cc2Cl)cc1` (centres undefined), the GI50 was 2.63 µM; the TGI was 9.14 µM and 27.7 µM and 22.5 µM.

`Nc1c(C(=O)Nc2ccc([As](=O)(O)O)cc2)cnc2nnnn12` had a TGI greater than 100 µM.

Consider `CC(C)n1c(/C=C/[C@@H](O)C[C@@H](O)CC(=O)O)c(-c2ccc(F)cc2)c2ccccc21`, for which the GI50 was 52.7 µM and 47.5 µM; the TGI is greater than 100 µM.

As for `CCOc1ccc(NCC2CC/C(=C\C=C\c3ccccc3)C2=O)cc1` (centres undefined), the TGI turned out to be 38.4 µM.

`N#Cc1ccc(-c2nc(C#N)c(N)o2)cc1` displayed a TGI greater than 10 µM.
